The record followed here is US4812462A, “4,5,6,7-tetrahydro-1H-imidazo[4,5-c]pyridine-6-carboxylic acid analogs having antihypertensive activity” (Warner-Lambert Company, priority 1986, dated 1989).

Each structure is given as a SMILES string. Structures can show the parent of a compound that is named as a salt.

Experiment [1] deals with angiotensin II binding to rat adrenal receptor preparations. Put plainly: inhibition of 125I-angiotensin II binding to rat adrenal receptor preparations.
Experiment [2] relates to 2 kidney, 1-clip Goldblatt hypertensive rat (RHR). Put plainly: blood pressure lowering in conscious 2 kidney, 1-clip Goldblatt (renal) hypertensive rats (RHR), AHP3. Type of experiment: in vivo. The conditions noted are these: 30 mg/kg ip, read-out: Max % decrease in blood pressure, 30 mg/kg ip in RHR. The method, then: (§1) Thus, for example, compounds of formula I when administered intraperitoneally or orally to 2 kidney, 1-clip Goldblatt (renal) hypertensive rats (See S Sen, et al., "Role of Renin-Angiotensin System in Chronic Renal Hypertensive Rats," Hypertension 1:427-434 (1979) and Clin. Soc. 57:53-62, 1979, "Antihypertensive Effect of Prolonged Blockade of Angiotensin Formation in Benign and Malignant, one-and two-kidney Goldblatt Hypertensive Rats".) at doses in the range of 1-100 mg/kg cause 10-80 mmHg drops in blood pressure. […] Angiotensin binding inhibition activity and blood pressure lowering activity in renal hypertensive rats of the optimally substituted examples of formula I are listed in Table 1. Blood pressure lowering activity in spontaneously hypertensive rats of optimally substituted examples of formula II are listed in Table 2.
(§2) […] EVALUATION (AHP3)
(§3) A Method for the Direct Monitoring of Aortic Blood Pressure and Heart Rate from Conscious Rats
(§4) The continuous monitoring of pulsatile blood pressure (BP) from unrestrained conscious rats surgically equipped with polyethylene cannulas was accomplished by means of a computer assisted data capture scheme (CADCS). The basic elements of the methodology are the cannulation procedure and the CADCS.
(§5) Rats were anesthetized with Telazol (1:1 tiletamine HCl and zolazepam HCl); 20-40 mg/kg IM and the descending aorta exposed via a midline incision. Cannulas fabricated from polyethylene tubing were inserted into the aorta via an undersized puncture hole below the renal arteries. The puncture hole was made by a 23 G disposable needle with a section of the aorta clamped off above and below the puncture site. The cannulas, consisting of a PE100 (0.86 mm ID) body and a PE50 (0.58 mm ID) tip, were attached to a trocar, inserted through the psoas muscle, and passed subcutaneously along the midline of the back and externalized between the ears. The cannulas were anchored to the psoas muscle and between the scalulae (3-0 green braided suture). The midline incision was closed in two steps (muscle first, skin second) using continuous over-and-over sutures (4-0 chronic). Each rat was then given penicillin 30,000 units subcutaneously (Penicillin G Procaine Sterile Suspension).
(§6) The rats were fitted with a harness-springswivel assembly designed to protect the cannula and to provide the rat relative freedom of movement. The harnesses were fabricated from nylon hook and loop tape cemented to a metal plate to which spring wires (18-8 stainless steel), were attached to brass swivels. Each polyethylene cannula was channeled through a spring and connected through a swivel to a pressure transducer (Model P23Gb; Statham Instruments; Hato Rey, Puerto Rico) and an infusion pump (Sage model 234-7; Orion Research, Cambridge, Mass.) by means of PE100 tubing. While on test, each rat received a continuous slow infusion of heparinized saline solution (approximately 0.40 ml or 40 units of heparin per 24 hr period) to prevent clot formation. Additional "flushes" of the cannula with heparinized saline were carried out when the aortic pulse pressure (systolic minus diastolic) was less than 25 mm Hg.
(§7) The pulsatile blood pressure of each of 32 rats was monitored continuously by two signal conditioning units (Gould, Clev., Ohio). The signals from these units were monitored and digital data for mean, systolic, and diastolic blood pressures as well as for heart rate were calculated every 5 min by two in-laboratory computers (Hewlett Packard, Cupertino, Calif.). These in-laboratory computers have the capacity to store 32 days of this 5 min data. Communication with the mainframe research computer (IBM 3083) from the two inlaboratory computers allowed for data analysis and report generation. […]

Experiment [3] has as its system spontaneously hypertensive rat (SHR). Put plainly: blood pressure lowering in conscious spontaneously hypertensive rats (SHR), AHP3. Type of experiment: in vivo. Conditions: 30 mg/kg PO, read-out: Max % decrease in blood pressure, 30 mg/kg PO in SHR. The method, then:
as §1, §2, §3, §4, §5, §6, §7

The term IC50 denotes the point on the concentration scale where inhibition reaches its midpoint. Low values mean greater potency, high ones weaker potency. In the case of `O=C(O)C1Cc2c(ncn2Cc2ccccc2)CN1C(=O)C1c2ccccc2-c2ccccc21` (single isomer, unassigned) [Example 29, 1H-Imidazo[4,5-c]pyridine-6-carboxylic acid, 5-[(9H-fluoren-9-yl)carbonyl]-4,5,6,7-tetrahydro-1-(phenylmethyl)-, (+)-], in experiment [1], the half-inhibitory concentration (IC50) was found to be 8 µM.

On to `O=C(O)C1Cc2c(ncn2CCC23CC4CC(CC(C4)C2)C3)CN1C(=O)C(c1ccccc1)c1ccccc1` (stereo not shown) [Example 2, 1-(2-(1-Adamantyl)ethyl)-5-diphenylacetyl-4,5,6,7-tetrahydro-1H-imidazo[4,5-c]pyridine-6-carboxylic acid], for which, in experiment [1], the IC50 was 0.1 µM. Also, in experiment [2], the change in vivo at 30 mg/kg was -26%.

For the molecule `O=C(O)C1Cc2c(ncn2CCC2CCCCC2)CN1C(=O)C(c1ccccc1)c1ccccc1` (stereo not shown) [Example 4, 1-(2-Cyclohexylethyl)-5-diphenylacetyl-4,5,6,7-tetrahydro-1H-imidazo[4,5-c]pyridine-6-carboxylic acid], the half-maximal inhibitory concentration (IC50) in experiment [1] was found to be 0.24 µM. In experiment [2], the change in vivo at 30 mg/kg was -13%.

Regarding `O=C(O)C1Cc2c(ncn2CCc2ccccc2)CN1C(=O)Cc1ccccc1` (stereo not shown) [Example 6, 1-(2-Phenylethyl)-5-phenylacetyl-4,5,6,7-tetrahydro-1H-imidazo[4,5-c]pyridine-6-carboxylic acid], the IC50 in experiment [1] was 2.4 µM. Moreover, the change in vivo at 30 mg/kg in experiment [2] was -16%.

Regarding `Cc1cc(Cn2cnc3c2CC(C(=O)O)N(C(=O)C(c2ccccc2)c2ccccc2)C3)ccc1N` (stereo not shown) [Example 13, 1-(4-Amino-3-methylphenyl)methyl-5-diphenylacetyl-4,5,6,7-tetrahydro-1H-imidazo[4,5-c]pyridine-6-carboxylic acid], the change in vivo at 30 mg/kg in experiment [2] was -22%.

`O=C(O)C1Cc2c(ncn2Cc2ccccc2O)CN1C(=O)C(c1ccccc1)c1ccccc1` (stereo not shown) [Example 17, 1-(2-Hydroxyphenyl)methyl-5-diphenylacetyl-4,5,6,7-tetrahydro-1H-imidazo[4,5-c]pyridine-6-carboxylic acid] showed a half-maximal inhibitory concentration (IC50) in experiment [1] of 0.69 µM. Besides, the change in vivo at 30 mg/kg in experiment [2] was -21%.

For `COc1ccc(Cn2cnc3c2CC(C(=O)O)N(C(=O)C(c2ccccc2)c2ccccc2)C3)cc1C` (stereo not shown) [Example 19, 1-(3-Methyl-4-methoxyphenyl)methyl-5-diphenylacetyl-4,5,6,7-tetrahydro-1H-imidazo[4,5-c]-pyridine-6-carboxylic acid], the IC50 in experiment [1] stood at 0.07 µM. Also, the change in vivo at 30 mg/kg in experiment [2] is -14%.

`O=C(O)C1Cc2c(ncn2Cc2ccc(C(F)(F)F)cc2)CN1C(=O)C(c1ccccc1)c1ccccc1` (stereo not shown) [Example 21, 1-(4-Trifluoromethylphenyl)methyl-5-diphenylacetyl-4,5,6,7 tetrahydro-1H-imidazo[4,5-c]pyridine-6-carboxylic acid] had an IC50 in experiment [1] of 0.19 µM. Moreover, the change in vivo at 30 mg/kg in experiment [2] is -18%.

On to `O=C(O)[C@@H]1Cc2c(ncn2Cc2ccccc2)CN1C(=O)C(c1ccc(Cl)cc1)c1ccc(Cl)cc1` [Example 22, (S)-5-[bis(4-chlorophenyl)acetyl]-4,5,6,7-tetrahydro-1-(phenylmethyl)-1H-imidazo[4,5-c]pyridine-6-carboxylic acid], for which the IC50 in experiment [1] was 6.8 µM. Also, the change in vivo at 30 mg/kg in experiment [2] is -27%.

With `COc1ccc(Cn2cnc3c2C[C@@H](C(=O)O)N(C(=O)C(c2ccc(C)cc2)c2ccc(C)cc2)C3)cc1C` [Example 25, (S)-[bis(4-methylphenyl)acetyl]-4,5,6,7-tetrahydro-1-[(4-methoxy-3-methylphenyl)methyl]-1H-imidazo[4,5-c]-pyridine-6-carboxylic acid], the change in vivo at 30 mg/kg in experiment [2] is -12%.

On to `COc1ccc(N2C(=O)C3Cc4c(ncn4Cc4ccc(OC)c(C)c4)CN3C2=S)cc1` (stereo not shown) [Example 127, 6,7,8a,9-Tetrahydro-1-[(4-methoxy-3-methylphenyl)-methyl]-7-(4-methoxyphenyl)-6-thioxo-1H-diimidazo-[1,5-a:4',5'-d]-pyridine-8(4H)-one], for which the change in vivo at 30 mg/kg in experiment [3] is -24%.

Consider `COc1ccc(N2C(=O)C3Cc4c(ncn4Cc4ccccc4)CN3C2=S)cc1` (stereo not shown) [Example 128, 6,7,8a,9-Tetrahydro-7-(4-methoxyphenyl)-1-(phenylmethyl)-6-thioxo-1H-diimidazo[1,5-a:4',5'-d]pyridine-8(4H)-one], for which the change in vivo at 30 mg/kg in experiment [3] was -32%.

Consider `CC(C)N1C(=O)[C@@H]2Cc3ncn(C)c3CN2C1=O` [Example 129, (S)-8a,9-dihydro-3-methyl-7-(1-methylethyl)-3H-diimidazo-[1,5-a:4',5'-d]pyridine-6,8(4H,7H)-dione], for which the change in vivo at 30 mg/kg in experiment [3] is -36%.

With `CC(C)N1C(=O)C2Cc3c(ncn3Cc3ccccc3)CN2C1=O` (stereo not shown) [Example 130, 8a,9-Dihydro-7-(1-methylethyl)-1-(phenylmethyl)-1H-diimidazo[1,5-a:4',5'-d]pyridine-6,8(4H,7H)-dione hydrobromide], in experiment [3], the change in vivo at 30 mg/kg is -21%.

In the case of `COc1ccc(N2C(=O)C3Cc4c(ncn4Cc4ccccc4)CN3C2=O)cc1` (stereo not shown) [Example 133, 1H-Diimidazo[1,5-a:4',5'-d]pyridine-6,8(4H,7H)-dione, 8a,9-dihydro-7-(4-methoxyphenyl)-1-(phenylmethyl)-, monohydrochloride], the change in vivo at 30 mg/kg in experiment [3] is -29%.

Regarding `CC(C)N1C(=O)C2Cc3nc[nH]c3CN2C1=O` (stereo not shown) [Example 154, 8a,9-Dihydro-7-(1-methylethyl)-3H-diimidazo[1,5-a:4',5'-d]-pyridine-6,8(4H,7H)-dione], the change in vivo at 30 mg/kg in experiment [3] was -39%.

For `COc1ccc(N2C(=O)C3Cc4[nH]cnc4CN3C2=O)cc1` (stereo not shown) [Example 155, 8a,9-Dihydro-7-(4-methoxyphenyl)-1H-diimidazo[1,5-a:4',5'-d]pyridine-6,8(4H,7H)-dione], the change in vivo at 30 mg/kg in experiment [3] was -39%.

As for `CC(C)(C)N1C(=O)C2Cc3[nH]cnc3CN2C1=O` (stereo not shown) [Example 156, 7-(1,1-Dimethylethyl)-8a,9-dihydro-1H-diimidazo[1,5-a:4',5'-d]pyridine-6,8(4H,7H)-dione], in experiment [3], the change in vivo at 30 mg/kg is -18%.

In the case of `COc1ccc(N2C(=O)C3Cc4[nH]cnc4CN3C2=O)c(OC)c1` (stereo not shown) [Example 157, 7-(2,4-Dimethoxyphenyl)-8a,9-dihydro-1H-diimidazo[1,5-a:4',5'-d]pyridine-6,8(4H,7H)-dione], the change in vivo at 30 mg/kg in experiment [3] was -22%.

As for `COc1ccc(N2C(=O)C3Cc4[nH]cnc4CN3C2=S)cc1` (stereo not shown) [Example 159, 1,4,6,7,8a,9-Hexahydro-7-(4-methoxyphenyl)-6-thioxo-8H-diimidazo[1,5-a:4',5'-d]pyridine-8-one], the change in vivo at 30 mg/kg in experiment [3] was -39%.

For the molecule `CN(C)c1ccc(N2C(=O)C3Cc4[nH]cnc4CN3C2=S)cc1` (stereo not shown) [Example 160, 7-[4-(Dimethylamino)phenyl]-1,4,6,7,8a,9-hexahydro-6-thioxo-8H-diimidazo[1,5-a:4',5'-d]pyridine-8-one], the change in vivo at 30 mg/kg in experiment [3] is -34%.

Turning to `O=C1C2Cc3[nH]cnc3CN2C(=S)N1c1ccccc1` (stereo not shown) [Example 161, 1,4,6,7,8a,9-Hexahydro-7-phenyl-6-thioxo-8H-diimidazo[1,5-a:4',5'-d]pyridine-8-one], in experiment [3], the change in vivo at 30 mg/kg was -28%.

In the case of `CC(C)N1C(=O)C2Cc3[nH]cnc3CN2C1=S` (stereo not shown) [Example 162, 1,4,6,7,8a,9-Hexahydro-7-(1-methylethyl)-6-thioxo-8H-diimidazo-(1,5-a:4',5'-d]pyridine-8-one], the change in vivo at 30 mg/kg in experiment [3] was -39%.

As for `COc1ccc(N2C(=O)C3Cc4c(ncn4Cc4ccc([N+](=O)[O-])c(C)c4)CN3C2=O)cc1` (stereo not shown) [Example 273, 1H-Diimidazo[1,5-c:4',5'-d]pyridine-6,8(4H,7H)-dione, 8a,9-dihydro-7-(4-methoxyphenyl)-1-[(3-methyl-4nitrophenyl)methyl], monohydrochloride], the change in vivo at 30 mg/kg in experiment [3] is -14%.
